Reference: PMC2970562, “High-Affinity Inhibitors of Human NAD^+-Dependent 15-Hydroxyprostaglandin Dehydrogenase: Mechanisms of Inhibition and Structure-Activity Relationships” (PLoS ONE, 2010)
pIC50: −log10 of the molar value. Where two headings read alike, the source gives them in different places.

How the values were obtained:
human 15-PGDH [1] = molecular target: T1, human 15-PGDH (Homo sapiens, UniProt P15428); test: qHTS and 24-point re-test: fluorescence assay of NAD+ reduction to NADH on PGE2 oxidation (PubChem AID 894); format: biochemical
T1 construct: comprising residues 3–256 of the human HPGD gene (GenBank identifier: 1203982); His6 (GHHHHHH, behind the TEV site) (C, cleaved yes); made in house; host or cells: E. coli BL21(DE3)-R3
T1 sequence (P15428 3-256): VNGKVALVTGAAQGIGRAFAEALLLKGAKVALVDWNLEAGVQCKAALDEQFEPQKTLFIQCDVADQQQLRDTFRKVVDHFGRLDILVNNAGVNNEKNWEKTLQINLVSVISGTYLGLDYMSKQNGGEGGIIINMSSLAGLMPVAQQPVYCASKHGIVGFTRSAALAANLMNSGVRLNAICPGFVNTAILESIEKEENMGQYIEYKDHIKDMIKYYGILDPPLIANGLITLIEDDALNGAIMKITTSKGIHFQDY
Method: The assay was miniaturized to a 4-µL volume in 1536-well format: enzyme (3 µL) was dispensed first, followed by a pintool transfer of library compounds dissolved in DMSO. After equilibration, a substrate dispense (1 µL) initiated the enzymatic reaction (see Materials and Methods, for detailed protocol description). […] Hits associated with low-efficacy (<40% maximum inhibition), incomplete curves, as well as those displaying only a single-point inhibition at the top concentration tested were eliminated from further consideration. Similarly, the collection of real-time kinetic data allowed the autofluorescence of each compound to be evaluated by comparing the initial fluorescence read at top concentration with the mean value of uninhibited assay controls: compounds whose top-concentration initial well fluorescence exceeded six standard deviations over the mean were flagged as potential autofluorescent artifacts, [28] (see example in supplementary information Figure S1E). The complete screening and followup results are available in PubChem (PubChem Assay ID 894).
The enzymatic reaction was performed in 50 mM Tris-HCl pH 8.0, containing 0.01% Tween 20. […] The high-throughput screen was performed on a fully integrated robotic system (Kalypsys Inc, San Diego, CA) as described elsewhere. Library compounds, arrayed as seven-point inter-plate concentration series, were screened from the lowest (3.5 nM) to the highest (57.5 µM) concentration, with plates containing DMSO only, serving to note any systematic drifts in the signal, interspersed evenly throughout the screen (approximately every 50 plates). Briefly, 3 µL of reagents were dispensed into 1536-well Greiner black solid-bottom assay plates using integrated nanoliter solenoid-technology dispensers. Compounds and controls (23 nL) were transferred via Kalypsys pintool equipped with 1,536-pin array (10-nL slotted pins; V&P Scientific, Palo Alto, CA). After a 15-minute incubation (to allow for interaction between compound and enzyme), a 1-µL substrate addition step initiated the reaction. Kinetic data were collected on a ViewLux High-throughput CCD imager (Perkin-Elmer) equipped with standard UV fluorescence optics (exc. 340 nm, em. 450 nm).
Starting fluorescence intensity and the change in fluorescence over the two-minute initial rate period were recorded for every well. Screening data were normalized against no-enzyme (64 wells, columns 3 and 4) and no-compound (32 wells located in column 1) controls, and concentration-response relationships were derived as described previously. A four-parameter Hill equation [47] was fitted to the concentration-response data using publicly available algorithms (http://www.ncgc.nih.gov/pub/openhts/curvefit/).

human 15-PGDH [2] = molecular target: T1, human 15-PGDH; test: Differential scanning fluorimetry (DSF), thermal stabilization; format: binding; conditions: for increase of stability by cofactor: versus ligand-free 15-PGDH
Method: A correlation between the ΔTm and the inhibitory potency has been shown in a number of protein-ligand systems, particularly for kinases [32]–[34].
Studies to assess the thermal stability of human 15-PGDH in presence of compounds were performed as described previously, with variations. Briefly, the protein was diluted to a final assay concentration of 1 µM in 100 mM Tris buffer pH 8.0, containing 0.01% Tween-20 and 1∶1000 SYPRO orange dye (Invitrogen). […] Compounds were added at a ratio of 1∶5 from appropriate stock solutions in 10% (v/v) DMSO to comprise either 50 or 250 µM final concentrations. Heat denaturation curves were recorded using a RT-PCR instrument (Mx3005p, Agilent) applying a temperature gradient of 2°C/min. […] 2.5 (ftp://ftp.sgc.ox.ac.uk/pub/biophysics) and PRISM 5.0 (GraphPad Software, Inc.).

human 15-PGDH [3] = molecular target: T1, human 15-PGDH; test: Substrate (PGE2) and cofactor (NAD+) titrations, mechanism of action, global fitting; format: biochemical
Method: Kinetic studies were performed in 100 mM Tris buffer pH 8.0, containing 0.01% Tween-20 and 10 nM 15-PGDH enzyme. […] All inhibitor compounds were dissolved in 10% (v/v) DMSO at varying concentrations from which they were applied at 1∶5 ratio (resulting in a final concentration of 2% (v/v) DMSO in all assays). For each experiment an aliquot of purified enzyme was thawed freshly and pre-diluted to 10 µM in buffer I (5 mM Tris/HCl, pH 8.0, 150 mM NaCl, 0.01% Tween-20). All experiments were performed in white 384-well PCR microplates (Bio-Rad Laboratories, Inc.) in final assay volumes of 20 µL. Twelve-point compound titrations were set up from serially diluted stock solutions in 10% (v/v) DMSO. […] The initial rates recorded in compound titrations were plotted against -log[compound], and non-linear regression (Levenberg-Marquardt) fitting of the dose-response curve to the Hill equation [47] was performed to derive the IC50, using PRISM 5.0 (GraphPad Software, Inc.). For substrate/cofactor titrations, curves with initial rates plotted against the concentration of substrate or cofactor were fitted to the Michaelis-Menten equation, to derive maximal activities, V max, and Michaelis constants, K m. Fitting qualities were judged from the goodness of fit (R^2>0.98).

[4] = potency in 24-point titrations on re-test, 20 nM 15-PGDH, 1 mM NAD+, 30 µM PGE2, pH 8.0
[5] = potency in 24-point titrations on re-test, 20 nM 15-PGDH, 1 mM NAD+, 30 µM PGE2, pH 8.0, read-out: qHTS IC50
[6] = cofactor, absence of inhibitor, 30 µM PGE2
[7] = substrate, absence of inhibitor

pIC50 (human 15-PGDH [1]; [5]) | also measured | SMILES
 | qHTS IC50 [nM] (human 15-PGDH [1]; [4]): Inactive; pIC50 (human 15-PGDH [1]; re-test of qHTS hits, Figure 2, read-out: IC50 from re-testing): < 5.00 | COc1ccc(N2CCN(C(=O)c3ccc(CSc4ccccc4)cc3)CC2)cc1 [Compound 6]
6.55 |  | CC(=O)Nc1ccc(NC(=O)CSc2nc3c(cc2C#N)CCC3)cc1 [Compound 10]
7.20 |  | C=C[C@@]1(C)CCCC[C@H]1CC#CCCCC [Compound 15]
6.15 |  | COc1ccc2ccccc2c1C=C1N=C(c2ccc(C)c(C)c2)OC1=O [Compound 19]
6.40 |  | COC(=O)CN(C)C(=O)c1cc(Cl)c(OCC(C)C)c(OC)c1 [Compound 21]
6.05 |  | CC1CCN(C(=O)CCc2ccc(Oc3cc([N+](=O)[O-])cc([N+](=O)[O-])c3)cc2)CC1 [Compound 22]
 | qHTS IC50 [nM] (human 15-PGDH [1]; [4]): Inactive | Fc1ccccc1-c1nnc(SCCc2ccncc2)n1C1CC1 [Compound 24]
4.90 |  | Cc1ccc(-c2nc3c4cnn(-c5cccc(Cl)c5)c4ncn3n2)cc1 [Compound 25]
4.95 |  | Cc1ccc(CN(c2ccc(C(=O)N3CCc4ccccc4C3)cc2)S(C)(=O)=O)cc1 [Compound 26]
4.80 |  | COc1ccc(OC)c(C=Cc2ccc(N3C(=O)C4CC=C5C(c6cc(Br)c(O)c(OC)c6)C6=C(CC5C4C3=O)C(=O)C=C(C)C6=O)cc2)c1 (stereo not shown) [Compound 27]
 | qHTS IC50 [nM] (human 15-PGDH [1]; [4]): inactive | COCCNC(=O)C1CSC(c2ccccc2)N1C(=O)c1ccc(OC)c(OC)c1 (stereo not shown) [Compound 28]
 | qHTS IC50 [nM] (human 15-PGDH [1]; [4]): inactive | CCNC(=S)NN=Cc1cccn1-c1ccccc1 [Compound 33]
 | qHTS IC50 [nM] (human 15-PGDH [1]; [4]): Inactive | Cc1c(Cl)cccc1NC(=O)CNC(=O)c1cncn1-c1ccc(F)cc1 [Compound 38]
 | qHTS IC50 [nM] (human 15-PGDH [1]; [4]): inactive | CC(C)(C)c1ccc(C(=O)O/N=C(\N)c2ccc(Cl)cc2)cc1 [Compound 39]
5.85 |  | O=C(CSc1n[nH]c(-c2ccccc2)n1)Nc1ncc(Br)cc1Br [Compound 40]
5.30 |  | COc1ccc(NC(=O)c2sccc2S(=O)(=O)N2CCCCC2)c(OC)c1 [Compound 41]
6.40 |  | O=C(C=Cc1ccco1)Nc1cc(Cl)c(O)c(Cl)c1 [Compound 43]
6.00 |  | Cc1ccc2nc(Cl)c(CO)cc2c1 [Compound 46]
6.80 |  | Cc1ccccc1OCc1nnc(SCC(N)=O)o1 [Compound 47]

pIC50 (human 15-PGDH [1]; [5]) | also measured | SMILES
 | qHTS IC50 [nM] (human 15-PGDH [1]; [4]): Inactive | Cc1ccc2nc(SCC(=O)N3CCCC[C@@H]3C)c(C#N)cc2c1 [Compound 49]
5.20 |  | O=C(O)c1cccc(Oc2cc(Cl)cc(Cl)c2)c1 [Compound 51]
4.85 |  | O=C(O)c1ccc(Cl)c(Cl)c1Br [Compound 52]
4.75 |  | O=C(NCCc1ccc(Cl)cc1)C1CCC(CNc2c(N3CCCCC3)c(=O)c2=O)CC1 (stereo not shown) [Compound 53]
4.80 |  | COC(=O)CSc1nc2cc(Br)c(C)nc2[nH]1 [Compound 58]
6.35 |  | CC1=NOC(=O)C1=Cc1ccc(-c2cc(Cl)ccc2Cl)o1 [Compound 62]
6.35 |  | O=C(COc1ccc(F)cc1Cl)Nc1cccc(C(=O)NC2CC2)c1 [Compound 63]
5.95 |  | CC1=NOC(=O)C1=Cc1ccc(-c2ccc(Cl)cc2)o1 [Compound 64]
6.40 |  | CCCCc1ccc(NC(=O)C2=CN3CCS(=O)(=O)N=C3C=C2)cc1 [Compound 67]
6.35 |  | CCCCCCCCCOC(=O)c1ccc2c(c1)N(CCCS(=O)(=O)O)/C(=C\C=C\c1n(CCCS(=O)(=O)O)c3cc(C(=O)OCCCCCCCCC)ccc3[n+]1CC)N2CC [Compound 68]
6.25 |  | COc1ccc(OC)c(NC(=O)Cc2cc(Cl)ccc2OC)c1 [Compound 69]
5.50 |  | CCc1nc(N2CCN(C(=O)c3ccco3)CC2)c(C#N)c2c1COC(C)(C)C2 [Compound 70]
6.90 |  | FC(F)(F)c1ccc(-c2nnco2)cc1 [Compound 73]
5.40 |  | CCNC(=O)c1ccc(CSc2ccc(Cl)cc2)cc1 [Compound 74]
5.60 |  | N#Cc1c(NC(=O)COC(=O)C23CC4CC(CC(C4)C2)C3)sc2c1CCCCC2 [Compound 75]
6.95 |  | COc1cccc(NC(=O)N2CCC3(CC2)C(=O)N(CC(=O)NCc2ccc4c(c2)OCO4)CN3c2ccccc2)c1 [Compound 76]
 | Tm of 15-PGDH in the presence of cofactor (human 15-PGDH [2]; pH 8.0, ligand-free Tm 41.2±0.3°C): 52.5±0.4 °C; increase of stability by cofactor (human 15-PGDH [2]; pH 8.0): more than 10 °C | NC(=O)C1=CN([C@@H]2O[C@H](COP(=O)(O)OP(=O)(O)OC[C@H]3O[C@@H](n4cnc5c(N)ncnc54)[C@H](O)[C@@H]3O)[C@@H](O)[C@H]2O)C=CC1 [NADH, reference compound]
 | Titration of NAD^+ K m (human 15-PGDH [3]; [6]): 15.8 ± 0.9 µM; Titration of NAD^+ V max [µmol/(min×mg)] (human 15-PGDH [3]; [6]): 21.2 µmol/min/mg; Titration of NAD^+ k cat/K m[×10^6] (human 15-PGDH [3]; [6]): 0.7 ×10^6; Titration of NAD^+ k cat[1/sec] (human 15-PGDH [3]; [6]): 10.3 ± 0.1 s⁻¹; increase of stability by cofactor (human 15-PGDH [2]; pH 8.0): more than 4 °C | NC(=O)c1ccc[n+]([C@@H]2O[C@H](COP(=O)([O-])OP(=O)(O)OC[C@H]3O[C@@H](n4cnc5c(N)ncnc54)[C@H](O)[C@@H]3O)[C@@H](O)[C@H]2O)c1 [NAD^+]
 | catalytic efficiency, k cat/K m (human 15-PGDH [3]; PGE2, absence of inhibitor): 2.5·10^6; catalytic constant, k cat (human 15-PGDH [3]; oxidation of PGE2, absence of inhibitor): about 14 per second; Titration of PGE2 K m (human 15-PGDH [3]; [7]): 5.5 ± 0.6 µM; Titration of PGE2 V max[µmol/(min×mg)] (human 15-PGDH [3]; [7]): 28.1 µmol/min/mg; Titration of PGE2 k cat/K m[×10^6] (human 15-PGDH [3]; [7]): 2.5 ×10^6; Titration of PGE2 k cat[1/sec] (human 15-PGDH [3]; [7]): 13.6 ± 0.3 s⁻¹; ΔTm in the presence of NAD+ (human 15-PGDH [2]): 2.4 °C; ΔTm in the presence of NADH (human 15-PGDH [2]): no stabilization; stabilization without cofactor (human 15-PGDH [2]; in words): failed to stabilize | CCCCC[C@H](O)/C=C/[C@H]1[C@H](O)CC(=O)[C@@H]1C/C=C\CCCC(=O)O [PGE2, 15-hydroxyprostaglandin type-E2, reference compound]
